Assay results: ChEMBL document CHEMBL1201862, “PubChem BioAssay data set” (2004)
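The compound was tested at five concentrations on cells cultured in 96-well plates, with a 48-hour exposure period. GI50 marks 50% less growth.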 Calls of active or inactive are those of the source. No stated cut-off is given here; in the data, active = GI50 up to about 1.1 µM and inactive = higher.

Legend:
Experiment in all cases: growth of human tumour cells (NCI), 48 h
[1] = tested on: MCF7
[2] = tested on: NCI-H460
[3] = tested on: TK-10
[4] = tested on: HL-60
[5] = tested on: SN12C
[6] = tested on: MOLT-4
[7] = tested on: SK-OV-3
[8] = tested on: A549
[9] = tested on: RPMI-8226
[10] = tested on: SW-620
[11] = tested on: CAKI-1
[12] = tested on: HCT-116
[13] = tested on: HOP-62
[14] = tested on: UACC-257
[15] = tested on: M14
[16] = tested on: NCI-H226
[17] = tested on: COLO 205
[18] = tested on: SF-268
[19] = tested on: SK-MEL-2
[20] = tested on: OVCAR-3
[21] = tested on: UACC-62
[22] = tested on: LOX IMVI
[23] = tested on: U-251
[24] = tested on: A498
[25] = tested on: T47D
[26] = tested on: OVCAR-8
[27] = tested on: NCI/ADR-RES
[28] = tested on: PC-3
[29] = tested on: UO-31
[30] = tested on: SF-539
[31] = tested on: CCRF-CEM
[32] = tested on: HOP-92
[33] = tested on: OVCAR-4
[34] = tested on: HT-29
[35] = tested on: 786-0
[36] = tested on: Hs-578T
[37] = tested on: MDA-MB-435
[38] = tested on: SK-MEL-5
[39] = tested on: SNB-19
[40] = tested on: K562
[41] = tested on: SK-MEL-28
[42] = tested on: MDA-N
[43] = tested on: Malme-3M
[44] = tested on: IGROV-1
[45] = tested on: RXF 393
[46] = tested on: NCI-H23
[47] = tested on: ACHN
[48] = tested on: KM12
[49] = tested on: NCI-H522
[50] = tested on: BT-549
[51] = tested on: SF-295
[52] = tested on: DU-145
[53] = tested on: EKVX
[54] = tested on: OVCAR-5
[55] = tested on: MDA-MB-231
[56] = tested on: HCT-15
[57] = tested on: SR
[58] = tested on: HCC 2998
[59] = tested on: SNB-75

`Cc1nnc(S(=O)(=O)c2ccc(/N=N/c3c(N)nc(N)nc3N)cc2)s1` was tested, and the GI50 [1] was > 100 µM (inactive), the GI50 [2] was > 100 µM (inactive) and the GI50 [3] was > 100 µM (inactive). The GI50 [4] was 33.4 µM (inactive), the GI50 [5] was > 100 µM (inactive) and the GI50 [6] was > 100 µM (inactive). For the same compound, the GI50 [7] was > 100 µM (inactive), the GI50 [8] was > 100 µM (inactive) and the GI50 [9] was > 100 µM (inactive). For the same compound, the GI50 [10] was > 100 µM (inactive), the GI50 [11] was > 100 µM (inactive) and the GI50 [12] was > 100 µM (inactive). For the same compound, the GI50 [13] was > 100 µM (inactive), the GI50 [14] was > 100 µM (inactive) and the GI50 [15] was > 100 µM (inactive). The GI50 [16] was > 100 µM (inactive), the GI50 [17] was > 100 µM (inactive) and the GI50 [18] was > 100 µM (inactive). For the same compound, the GI50 [19] was > 100 µM (inactive), the GI50 [20] was > 100 µM (inactive) and the GI50 [21] was > 100 µM (inactive). For the same compound, the GI50 [22] was > 100 µM (inactive), the GI50 [23] was > 100 µM (inactive) and the GI50 [24] was > 100 µM (inactive). For the same compound, the GI50 [25] was > 100 µM (inactive), the GI50 [26] was > 100 µM (inactive) and the GI50 [27] was > 100 µM (inactive). For the same compound, the GI50 [28] was > 100 µM (inactive), the GI50 [29] was > 100 µM (inactive) and the GI50 [30] was > 100 µM (inactive). For the same compound, the GI50 [31] was > 100 µM (inactive), the GI50 [32] was > 100 µM (inactive) and the GI50 [33] was > 100 µM (inactive). For the same compound, the GI50 [34] was > 100 µM (inactive), the GI50 [35] was > 100 µM (inactive) and the GI50 [36] was > 100 µM (inactive). For the same compound, the GI50 [37] was > 100 µM (inactive), the GI50 [38] was > 100 µM (inactive) and the GI50 [39] was > 100 µM (inactive). For the same compound, the GI50 [40] was > 100 µM (inactive), the GI50 [41] was > 100 µM (inactive) and the GI50 [42] was > 100 µM (inactive). The GI50 [43] was > 100 µM (inactive), the GI50 [44] was > 100 µM (inactive) and the GI50 [45] was > 100 µM (inactive). For the same compound, the GI50 [46] was > 100 µM (inactive), the GI50 [47] was > 100 µM (inactive) and the GI50 [48] was > 100 µM (inactive). For the same compound, the GI50 [49] was > 100 µM (inactive), the GI50 [50] was > 100 µM (inactive) and the GI50 [51] was > 100 µM (inactive). The GI50 [52] was > 100 µM (inactive), the GI50 [53] was > 100 µM (inactive) and the GI50 [54] was > 100 µM (inactive). The GI50 [55] was > 100 µM (inactive), the GI50 [56] was greater than 100 µM and the GI50 [57] was > 100 µM (inactive).

For `NCCNCC1CCNCC1`, the GI50 [1] was > 100 µM (inactive), the GI50 [2] was > 100 µM (inactive) and the GI50 [3] was > 100 µM (inactive). For the same compound, the GI50 [5] was > 100 µM (inactive), the GI50 [58] was > 100 µM (inactive) and the GI50 [6] was > 100 µM (inactive). The GI50 [7] was > 100 µM (inactive), the GI50 [8] was > 100 µM (inactive) and the GI50 [9] was > 100 µM (inactive). For the same compound, the GI50 [10] was > 100 µM (inactive), the GI50 [11] was > 100 µM (inactive) and the GI50 [12] was > 100 µM (inactive). The GI50 [59] was > 100 µM (inactive), the GI50 [13] was > 100 µM (inactive) and the GI50 [14] was > 100 µM (inactive). For the same compound, the GI50 [15] was > 100 µM (inactive), the GI50 [16] was > 100 µM (inactive) and the GI50 [17] was > 100 µM (inactive). For the same compound, the GI50 [18] was > 100 µM (inactive), the GI50 [19] was > 100 µM (inactive) and the GI50 [20] was > 100 µM (inactive). The GI50 [21] was > 100 µM (inactive), the GI50 [22] was > 100 µM (inactive) and the GI50 [23] was > 100 µM (inactive). The GI50 [24] was > 100 µM (inactive), the GI50 [25] was > 100 µM (inactive) and the GI50 [26] was > 100 µM (inactive). The GI50 [27] was > 100 µM (inactive), the GI50 [28] was > 100 µM (inactive) and the GI50 [29] was > 100 µM (inactive). For the same compound, the GI50 [30] was > 100 µM (inactive), the GI50 [32] was > 100 µM (inactive) and the GI50 [33] was > 100 µM (inactive). The GI50 [34] was > 100 µM (inactive), the GI50 [35] was > 100 µM (inactive) and the GI50 [36] was > 100 µM (inactive). For the same compound, the GI50 [37] was > 100 µM (inactive), the GI50 [38] was > 100 µM (inactive) and the GI50 [39] was > 100 µM (inactive). For the same compound, the GI50 [40] was > 100 µM (inactive), the GI50 [41] was > 100 µM (inactive) and the GI50 [42] was > 100 µM (inactive). The GI50 [43] was > 100 µM (inactive), the GI50 [44] was > 100 µM (inactive) and the GI50 [45] was > 100 µM (inactive). The GI50 [46] was > 100 µM (inactive), the GI50 [47] was > 100 µM (inactive) and the GI50 [48] was > 100 µM (inactive). The GI50 [49] was > 100 µM (inactive), the GI50 [50] was > 100 µM (inactive) and the GI50 [51] was > 100 µM (inactive). The GI50 [52] was > 100 µM (inactive), the GI50 [53] was > 100 µM (inactive) and the GI50 [54] was > 100 µM (inactive). For the same compound, the GI50 [55] was > 100 µM (inactive), the GI50 [56] was greater than 100 µM and the GI50 [57] was > 100 µM (inactive).

With `CC#CC(=O)SCCNC(=O)CC` the GI50 [1] was 4.41 µM (inactive), the GI50 [2] was > 10 µM (inactive) and the GI50 [3] was > 10 µM (inactive). The GI50 [4] was > 5.57 µM (inactive), the GI50 [5] was > 10 µM (inactive) and the GI50 [58] was > 10 µM (inactive). The GI50 [6] was 1.48 µM (inactive), the GI50 [7] was > 10 µM (inactive) and the GI50 [8] was > 10 µM (inactive). For the same compound, the GI50 [9] was > 5.15 µM (inactive), the GI50 [10] was 3.01 µM (inactive) and the GI50 [11] was > 10 µM (inactive). For the same compound, the GI50 [12] was 8.51 µM (inactive), the GI50 [59] was > 10 µM (inactive) and the GI50 [13] was > 10 µM (inactive). For the same compound, the GI50 [14] was > 10 µM (inactive), the GI50 [15] was > 8.05 µM (inactive) and the GI50 [16] was > 10 µM (inactive). The GI50 [17] was 3.27 µM (inactive), the GI50 [18] was > 10 µM (inactive) and the GI50 [19] was > 10 µM (inactive). For the same compound, the GI50 [20] was > 10 µM (inactive), the GI50 [21] was > 9.44 µM (inactive) and the GI50 [22] was 3.31 µM (inactive). For the same compound, the GI50 [23] was > 10 µM (inactive), the GI50 [24] was > 10 µM (inactive) and the GI50 [25] was > 6.5 µM (inactive). For the same compound, the GI50 [26] was > 10 µM (inactive), the GI50 [27] was > 10 µM (inactive) and the GI50 [28] was > 10 µM (inactive). The GI50 [29] was > 10 µM (inactive), the GI50 [30] was 9.02 µM (inactive) and the GI50 [31] was 3.05 µM (inactive). For the same compound, the GI50 [33] was 4.48 µM (inactive), the GI50 [34] was > 10 µM (inactive) and the GI50 [35] was > 6.7 µM (inactive). The GI50 [36] was > 10 µM (inactive), the GI50 [37] was 7.24 µM (inactive) and the GI50 [38] was 8.39 µM (inactive). For the same compound, the GI50 [39] was > 10 µM (inactive), the GI50 [40] was > 5.38 µM (inactive) and the GI50 [41] was > 8.71 µM (inactive). The GI50 [42] was 6.07 µM (inactive), the GI50 [43] was > 10 µM (inactive) and the GI50 [44] was > 10 µM (inactive). For the same compound, the GI50 [45] was 4.53 µM (inactive), the GI50 [46] was > 10 µM (inactive) and the GI50 [47] was > 10 µM (inactive). The GI50 [48] was > 10 µM (inactive), the GI50 [49] was 1.62 µM (inactive) and the GI50 [50] was 3.81 µM (inactive). For the same compound, the GI50 [51] was > 10 µM (inactive), the GI50 [52] was > 10 µM (inactive) and the GI50 [53] was > 10 µM (inactive). For the same compound, the GI50 [54] was > 10 µM (inactive), the GI50 [55] was > 10 µM (inactive) and the GI50 [56] was greater than 10 µM. For the same compound, the GI50 [57] was > 4.79 µM (inactive).
